Assay results from patent US6416949B1, “Method of synthesizing diverse collections of oligomers” (Affymax, Inc., priority 1991, dated 2002).
pKd: −log10 of the molar value.

Columns and labels:
Monoclonal antibody 3E7 [1] = experiment: magnetic selection of peptide beads by microbead-conjugated 3E7, analysed by flow cytometry; format: binding; conditions: 16 hr incubation at 4 degrees C in PBS, high strength magnet
Procedure: After a 16 hr incubation at 4 degrees C, beads which bind the 3E7 antibody are selected using a high strength magnet. The selected beads are then analyzed by flow cytometry.

Monoclonal antibody 3E7 [2] = experiment: staining of peptide beads with fluorescently labeled antibody 3E7 and FACS sorting; format: binding; conditions: peptide on oligonucleotide-tagged beads
Procedure: The beads coupled with the 95 mer and YGGFL were mixed with the beads that were coupled to the 110 mer and F in the ratio of 1:20. Thus, 0.1 mg of 95 mer/YGGFL beads (2 million beads) were mixed with 2.0 mg of the 110 mer/Phe beads (40 million beads). The mixture was suspended in blocking buffer (PBS, 1% BSA, and 0.05% Tween-20) and incubated at room temperature for 1 hr. The beads were next pelleted by centrifugation and resuspended in a solution of an FITC-labeled monoclonal antibody 3E7 that binds the peptide YGGFL (1 μg/mL). The suspension was incubated 0.5 hr on ice and then centrifuged to isolate the bead pellet.
The beads were resuspended in PBS for delivery into the fluorescence activated cell sorting (FACS) instrument (Becton Dickinson FACSORT Plus). Beads that had bound to the fluorescently labeled antibody were identified by their acquired fluorescence, and fluorescent beads were isolated by sorting into PCR tubes. One, ten, or one hundred fluorescent beads were sorted into each PCR tube. […]
The beads were resuspended in PBS for delivery into the fluorescence activated cell sorting (FACS) instrument (Becton Dickinson FACSORT Plus). Beads that had bound to the fluorescently labeled antibody were identified by their acquired fluorescence (see FIG. 10), and homogeneous samples of either fluorescent or non-fluorescent beads were isolated by sorting into PCR tubes. […]

Monoclonal antibody 3E7 [3] = conditions: solution assay, MAb 3E7; read-out: equilibrium binding constant (Kd); cited from earlier work

pentapeptide L-Tyr-Gly-Gly-L-Phe-L-Leu, ligand of monoclonal antibody 3E7 [YGGFL]
selection of peptide-bearing beads by 3E7 antibody (Monoclonal antibody 3E7 [1]): only beads displaying the peptide YGGFL are selected
binding of the peptide by fluorescently labeled antibody 3E7 (Monoclonal antibody 3E7 [2]): high affinity
pKd (Monoclonal antibody 3E7 [3]): 8.18
